Active and inactive are the calls of the source. The calls are words filed in the database; no cut-off is given here.

The source of these data is ChEMBL document CHEMBL5247622, “Structural optimization of Imidazo[1, 2-a]pyridine derivatives for the treatment of gastric cancer via STAT3 signaling pathway” (Eur J Med Chem, 2022).

The nature of data set [1]: Metabolic stability in human liver microsomes assessed as half life. Format: ADME, Microsome. In general terms: Liver microsomes are a subcellular fraction often used to study metabolism.
In data set [2] the target is Signal transducer and activator of transcription 3 (Homo sapiens) (UniProt P40763). Kind of data set: Thermal stabilization of STAT3 in human AGS cells at 1 uM at 37 to 54 degreeC incubated for 1 hr by cellular thermal shift assay. Format: cell-based.
Data set [3] shares this target. Put plainly: Inhibition of STAT3 in human MGC-803 cells assessed as inhibition of total STAT3 protein level at 0.3 to 3 uM by western blot assay. Format: cell-based. To be noted: dose 0.3-3 µM. Background: Immunoblotting shows a protein as a band on a membrane.
The target in data set [4] is T1, Signal transducer and activator of transcription 1-alpha/beta (Homo sapiens) (UniProt P42224).
T1 sequence (whole entry): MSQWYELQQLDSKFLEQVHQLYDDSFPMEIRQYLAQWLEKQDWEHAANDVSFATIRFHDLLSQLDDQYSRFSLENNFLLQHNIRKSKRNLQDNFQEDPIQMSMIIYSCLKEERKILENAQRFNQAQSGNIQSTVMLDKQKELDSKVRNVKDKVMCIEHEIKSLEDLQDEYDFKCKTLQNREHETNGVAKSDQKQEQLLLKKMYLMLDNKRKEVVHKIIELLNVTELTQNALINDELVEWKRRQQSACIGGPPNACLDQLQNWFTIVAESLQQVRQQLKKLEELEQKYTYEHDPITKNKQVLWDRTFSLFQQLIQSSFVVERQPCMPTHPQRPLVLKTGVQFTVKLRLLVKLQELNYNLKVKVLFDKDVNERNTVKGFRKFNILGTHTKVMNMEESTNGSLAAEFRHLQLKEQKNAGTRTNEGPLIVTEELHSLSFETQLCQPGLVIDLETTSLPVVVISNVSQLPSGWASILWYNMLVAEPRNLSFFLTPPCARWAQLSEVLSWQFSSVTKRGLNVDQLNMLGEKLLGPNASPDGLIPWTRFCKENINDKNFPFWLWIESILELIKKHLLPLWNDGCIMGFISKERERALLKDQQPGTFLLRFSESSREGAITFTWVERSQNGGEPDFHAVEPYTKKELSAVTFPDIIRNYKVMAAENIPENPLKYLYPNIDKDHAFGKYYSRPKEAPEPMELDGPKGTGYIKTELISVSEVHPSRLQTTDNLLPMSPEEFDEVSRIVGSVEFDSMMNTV
Kind of data set: Inhibition of STAT1 in human AGS cells assessed as inhibition of STAT1 phosphorylation level at Tyr701 at 0.3 to 3 uM by western blot assay. Type of data set: cell-based. The note with it: dose 0.3-3 µM.

Data set [5] addresses Signal transducer and activator of transcription 3 (Homo sapiens) (UniProt P40763). Kind of data set: Inhibition of HA-tagged STAT3 (unknown origin) dimerization transfected in HEK293T cells at 0.3 to 3 uM incubated for 24 hrs followed by IL-6 stimulation and measured after 1 hr by immunoprecipitation assay. Type of data set: cell-based. The note with it: dose 0.3-3 µM, time 25.0 hrs.

Data set [6] shares this target. Kind of data set: Inhibition of Flag-tagged STAT3 (unknown origin) dimerization transfected in HEK293T cells at 0.3 to 3 uM incubated for 24 hrs followed by IL-6 stimulation and measured after 1 hr by immunoprecipitation assay. Format: cell-based. The note with it: dose 0.3-3 µM, time 25.0 hrs.
Data set [7] has the same target. Kind of data set: Inhibition of STAT3 in human AGS cells assessed as reduction of c-Myc protein expression level at 0.3 to 3 uM by western blot assay. Format: cell-based. The note with it: dose 0.3-3 µM.
The test system of data set [8] is MGC-803. Kind of data set: Inhibition of colony formation in human MGC-803 cells at 0.3 to 3 uM incubated for 10 to 15 days by crystal violet staining based assay. Type of data set: functional, cell-based. The note with it: dose 0.3-3 µM, time 10-15 day.
Data set [9] relates to AGS. Kind of data set: Induction of apoptosis in human AGS cells assessed as viable cells at 0.3 uM incubated for 48 hrs by Annexin V-FITC/PI staining based flow cytometry method (reference value: 94.8 %). Format: functional. To be noted: read-out: Activity.
Data set [10] deals with AGS. Kind of data set: Induction of apoptosis in human AGS cells assessed as viable cells at 1 uM incubated for 48 hrs by Annexin V-FITC/PI staining based flow cytometry method (reference value: 94.8 %). Format: functional. To be noted: read-out: Activity. Background: In flow cytometry, cells or beads pass a laser one at a time.
Data set [11] concerns AGS. Kind of data set: Induction of apoptosis in human AGS cells assessed as late apoptotic cells at 3 uM incubated for 48 hrs by Annexin V-FITC/PI staining based flow cytometry method (reference value: 2.46 %). Type of data set: functional.
For data set [12], the system named is AGS. Put plainly: Induction of apoptosis in human AGS cells assessed as necrotic cells at 1 uM incubated for 48 hrs by Annexin V-FITC/PI staining based flow cytometry method (reference value: 0.32 %). Format: functional.
The test system of data set [13] is MGC-803. Put plainly: Inhibition of cell invasion in human MGC-803 cells at 0.03 to 0.3 uM incubated for 12 hrs by crystal violet staining based transwell assay. Format: functional. The note with it: dose 0.03-0.3 µM.
Data set [14] concerns MGC-803. Put plainly: Antitumor activity against human MGC-803 cells xenografted in BALB/c mouse assessed as inhibition of tumor volume at 5 to 15 mg/kg,ip administrated for 21 consecutive days. Format: functional, organism-based. The note with it: dose 5-15 mg/kg.
In data set [15] the test system is MGC-803. Kind of data set: Antitumor activity against human MGC-803 cells xenografted in BALB/c mouse assessed as tumor growth inhibition at 15 mg/kg,ip administrated for 21 consecutive days relative to control. Format: functional. To be noted: read-out: TGI.
Data set [16] is described as follows: Toxicity in BALB/c mouse xenografted with human MGC-803 cells assessed as morphological change in liver at 5 mg/kg,ip administrated for 21 consecutive days by hematoxylin and eosin staining method. Format: organism-based. The note with it: in vivo.
Data set [17] is described as follows: Toxicity in BALB/c mouse xenografted with human MGC-803 cells assessed as morphological change in kidney at 5 mg/kg,ip administrated for 21 consecutive days by hematoxylin and eosin staining method. Format: organism-based. The note with it: in vivo.
The nature of data set [18]: Toxicity in BALB/c mouse xenografted with human MGC-803 cells assessed as morphological change in spleen at 15 mg/kg,ip administrated for 21 consecutive days by hematoxylin and eosin staining method. Type of data set: organism-based. To be noted: in vivo.
Data set [19] can be described thus: Toxicity in BALB/c mouse xenografted with human MGC-803 cells assessed as morphological change in lung at 15 mg/kg,ip administrated for 21 consecutive days by hematoxylin and eosin staining method. To be noted: in vivo. Format: organism-based.
Data set [20] concerns MGC-803. Put plainly: Antitumor activity against human MGC-803 cells xenografted in BALB/c mouse assessed as reduction of Ki67 expression level in tumor at 15 mg/kg,ip administrated for 21 consecutive days by immunohistochemistry analysis. Format: functional, organism-based.
For data set [21], the target named is Signal transducer and activator of transcription 3 (Homo sapiens) (UniProt P40763). Kind of data set: In vivo inhibition of STAT3 in BALB/c mouse xenografted with human MGC-803 cells assessed as reduction of c-Myc expression in tumor at 15 mg/kg,ip administrated for 21 consecutive days by immunohistochemistry analysis. Type of data set: functional, organism-based.

Data set [22] has the same target. Kind of data set: In vivo inhibition of STAT3 in BALB/c mouse xenografted with human MGC-803 cells assessed as reduction of Mcl-1 expression in tumor at 5 mg/kg,ip administrated for 21 consecutive days by immunohistochemistry analysis. Format: functional, organism-based.

Sequence of Signal transducer and activator of transcription 3 (Homo sapiens) (P40763 whole entry): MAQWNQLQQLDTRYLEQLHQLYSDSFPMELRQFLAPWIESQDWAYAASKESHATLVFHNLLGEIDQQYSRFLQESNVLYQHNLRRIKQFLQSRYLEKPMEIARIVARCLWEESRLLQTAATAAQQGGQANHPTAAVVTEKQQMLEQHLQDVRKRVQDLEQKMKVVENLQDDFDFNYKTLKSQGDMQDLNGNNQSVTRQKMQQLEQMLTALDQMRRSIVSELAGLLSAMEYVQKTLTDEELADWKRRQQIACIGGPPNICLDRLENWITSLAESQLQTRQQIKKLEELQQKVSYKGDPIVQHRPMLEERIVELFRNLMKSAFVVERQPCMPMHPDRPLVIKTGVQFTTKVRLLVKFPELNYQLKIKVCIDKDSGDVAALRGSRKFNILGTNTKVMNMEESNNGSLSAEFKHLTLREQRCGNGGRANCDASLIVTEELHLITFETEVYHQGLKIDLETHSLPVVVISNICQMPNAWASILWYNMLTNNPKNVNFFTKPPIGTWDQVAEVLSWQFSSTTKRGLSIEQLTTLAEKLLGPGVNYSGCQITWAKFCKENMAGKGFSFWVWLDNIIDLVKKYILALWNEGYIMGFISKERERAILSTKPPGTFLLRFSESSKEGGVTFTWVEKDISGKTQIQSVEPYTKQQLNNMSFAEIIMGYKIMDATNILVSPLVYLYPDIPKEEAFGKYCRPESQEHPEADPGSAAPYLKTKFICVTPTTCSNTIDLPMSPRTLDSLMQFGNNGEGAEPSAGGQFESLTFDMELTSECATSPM

Take `Cc1cc(NC(=O)c2ccc([N+](=O)[O-])o2)ccc1-c1cnc2ccccn12`: the half-life in data set [1] came to 41.2 min. The outcome in data set [2] was Active. The inhibition result in data set [3] and in [4] was “inactive” each time. The inhibition result in data set [5], in data set [6], in [8] and in data set [14] was “Dose-Dependent Effect” in each case. The inhibition entry in [7], in [13], in [20], in data set [21] and in data set [22] was “Active” throughout. For the same compound, the viability at 0.3 µM in data set [9] worked out at 93.7%. In data set [10], the viability at 1 µM is 92.1%. Moreover, the Activity was 6.37% in [11]; 0.75% in [12]; “Non-Toxic” in data set [16]; “Non-Toxic” in [17]; “Non-Toxic” in data set [18]; “Non-Toxic” in data set [19]. In addition, in data set [15], the inhibition in vivo at 15 mg/kg is 73.4%.

By half-life is commonly meant the time in which the quantity being followed falls by half.
